Earlier results as cited in patent US9592318B2, “Topical analgesic composition” (Animal Ethics Pty Ltd, priority 2005, dated 2017).

Tests used:
significant open wound = settings: topical, FIG. 2 area '3'
[1] = following injection

| SMILES | duration of anesthesia of open wound (significant open wound) | duration of action [1] |
| --- | --- | --- |
| CCN(CC)CC(=O)Nc1c(C)cccc1C [Lignocaine] | around 30 minutes |  |
| CCCCN1CCCCC1C(=O)Nc1c(C)cccc1C (centres unmarked) [bupivacaine] |  | 6 to 8 h |
